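Interpolation was linear, between the two tested concentrations surrounding the appropriate level; five concentrations were tested over 48 hours in 96-well plates. The concentration for 50% growth inhibition is given as GI50.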 Activity calls are given as the source filed them. Cut-off read from the data, not from the text of the source: active = GI50 up to about 1.1 µM and inactive = higher.
Experiments:
Assay in all cases: inhibition of tumour cell growth, NCI panel, 48 h
A498 = system: A498
CAKI-1 = system: CAKI-1
HCT-116 = system: HCT-116
HCT-15 = system: HCT-15
HOP-62 = system: HOP-62
HOP-92 = system: HOP-92
LOX IMVI = system: LOX IMVI
MCF7 = system: MCF7
MDA-MB-435 = system: MDA-MB-435
MOLT-4 = system: MOLT-4
NCI-H226 = system: NCI-H226
NCI-H23 = system: NCI-H23
NCI-H460 = system: NCI-H460
NCI/ADR-RES = system: NCI/ADR-RES
RPMI-8226 = system: RPMI-8226
SF-539 = system: SF-539
SNB-19 = system: SNB-19
SNB-75 = system: SNB-75
SW-620 = system: SW-620
TK-10 = system: TK-10

| SMILES | GI50 (A498) | GI50 (CAKI-1) | GI50 (HCT-116) | GI50 (HCT-15) [µM] | GI50 (HOP-62) | GI50 (HOP-92) | GI50 (LOX IMVI) | GI50 (MCF7) | GI50 (MDA-MB-435) | GI50 (MOLT-4) | GI50 (NCI-H226) | GI50 (NCI-H23) | GI50 (NCI-H460) | GI50 (NCI/ADR-RES) | GI50 (RPMI-8226) | GI50 (SF-539) | GI50 (SNB-19) | GI50 (SNB-75) | GI50 (SW-620) | GI50 (TK-10) |
| --- | --- | --- | --- | --- | --- | --- | --- | --- | --- | --- | --- | --- | --- | --- | --- | --- | --- | --- | --- | --- |
| O=C(CCc1ccc(O)c(O)c1)NCCc1cc(O)cc(O)c1 | > 100 µM (inactive) | > 100 µM (inactive) | > 100 µM (inactive) | > 100 | > 100 µM (inactive) | > 100 µM (inactive) | 46 µM (inactive) | 66.8 µM (inactive) | 24.8 µM (inactive) | > 100 µM (inactive) | > 100 µM (inactive) | > 100 µM (inactive) | > 100 µM (inactive) | > 100 µM (inactive) | > 100 µM (inactive) | > 100 µM (inactive) | > 100 µM (inactive) | > 100 µM (inactive) | > 100 µM (inactive) | > 100 µM (inactive) |
| O=C1/C(=C/c2ccccc2)CN(C(=O)/C=C/c2ccccc2)C/C1=C\c1ccccc1 | 33.3 µM (inactive) | 23.7 µM (inactive) | 0.764 µM (active) | 6.17 | 23.7 µM (inactive) | 25.9 µM (inactive) | 2.55 µM (inactive) | 1.75 µM (inactive) | 1.93 µM (inactive) | 3.53 µM (inactive) | 18.8 µM (inactive) | 12.4 µM (inactive) | 11.5 µM (inactive) | 1.86 µM (inactive) | 1.07 µM (active) | 9.75 µM (inactive) | 8.15 µM (inactive) | 13.5 µM (inactive) | 2.39 µM (inactive) | 16.1 µM (inactive) |
| COc1cc2c(/C=C3/C(=O)Nc4ccc(O)cc43)c(Cl)[nH]c2cc1C | 11.4 µM (inactive) | 0.0893 µM (active) | 0.0897 µM (active) | 0.107 | 0.127 µM (active) | 15.9 µM (inactive) | 0.0775 µM (active) | 0.0748 µM (active) | < 0.0137 µM (active) | 0.039 µM (active) | 0.258 µM (active) | 0.23 µM (active) | 0.454 µM (active) | 0.249 µM (active) | 0.275 µM (active) | 0.0447 µM (active) | 0.146 µM (active) | 0.143 µM (active) | 0.0955 µM (active) | 0.398 µM (active) |
| Cc1cc(C)c2c(c1)CC1(Cc3c(C)cc(C)cc3C1=O)C2=O (stereo unspecified) | > 100 µM (inactive) | > 100 µM (inactive) | – | > 100 | – | > 100 µM (inactive) | > 100 µM (inactive) | > 100 µM (inactive) | > 100 µM (inactive) | > 100 µM (inactive) | > 100 µM (inactive) | – | > 100 µM (inactive) | > 100 µM (inactive) | > 100 µM (inactive) | 35.8 µM (inactive) | > 100 µM (inactive) | > 100 µM (inactive) | > 100 µM (inactive) | > 100 µM (inactive) |
| O=C(c1cc2ccccc2cc1O)N1CCCCC1 | 15.2 µM (inactive) | 50.7 µM (inactive) | 39.6 µM (inactive) | 35.8 | 27.4 µM (inactive) | 11.4 µM (inactive) | 55.1 µM (inactive) | 26.4 µM (inactive) | 33.3 µM (inactive) | 15.3 µM (inactive) | 17.8 µM (inactive) | – | 27.7 µM (inactive) | 23.8 µM (inactive) | 17.6 µM (inactive) | 37.3 µM (inactive) | 28.5 µM (inactive) | 31.5 µM (inactive) | 48 µM (inactive) | > 100 µM (inactive) |
| CN1C2CCC1C(CO)C(=O)C2 (stereo unspecified) | > 100 µM (inactive) | 32.7 µM (inactive) | – | 24.9 | > 100 µM (inactive) | > 100 µM (inactive) | > 100 µM (inactive) | 22.6 µM (inactive) | > 100 µM (inactive) | 18.2 µM (inactive) | > 100 µM (inactive) | > 100 µM (inactive) | > 100 µM (inactive) | > 100 µM (inactive) | 21.3 µM (inactive) | 23.2 µM (inactive) | – | > 100 µM (inactive) | 20.4 µM (inactive) | 22.9 µM (inactive) |
| Cc1nc(-c2ccc(Cl)cc2)cn2c1nc1ccccc12 | > 100 µM (inactive) | > 100 µM (inactive) | > 100 µM (inactive) | 19.4 | > 100 µM (inactive) | > 33.1 µM (inactive) | > 100 µM (inactive) | 0.647 µM (active) | > 100 µM (inactive) | 26.3 µM (inactive) | > 100 µM (inactive) | > 100 µM (inactive) | > 100 µM (inactive) | > 86.3 µM (inactive) | > 100 µM (inactive) | > 61.4 µM (inactive) | > 100 µM (inactive) | > 100 µM (inactive) | > 100 µM (inactive) | > 100 µM (inactive) |
| Cc1ccc(C)c(NC(=O)/C(=N\N)C(c2cnc3ccc([N+](=O)[O-])cc3n2)[N+](=O)[O-])c1 (stereo unspecified) | 83.2 µM (inactive) | 39.4 µM (inactive) | > 100 µM (inactive) | > 100 | 40 µM (inactive) | > 100 µM (inactive) | 56.4 µM (inactive) | 60.8 µM (inactive) | 62.5 µM (inactive) | 54.5 µM (inactive) | > 100 µM (inactive) | 70.8 µM (inactive) | 70.3 µM (inactive) | 32.2 µM (inactive) | 45.9 µM (inactive) | > 100 µM (inactive) | – | > 100 µM (inactive) | > 100 µM (inactive) | > 100 µM (inactive) |
| N#Cc1c(C#N)c(-c2cccc([N+](=O)[O-])c2)n(-c2ccccc2)c1N | 17.8 µM (inactive) | 44.4 µM (inactive) | > 100 µM (inactive) | > 100 | 49.4 µM (inactive) | 17.8 µM (inactive) | > 100 µM (inactive) | > 100 µM (inactive) | > 100 µM (inactive) | > 100 µM (inactive) | 18 µM (inactive) | > 100 µM (inactive) | – | > 100 µM (inactive) | > 100 µM (inactive) | 21.1 µM (inactive) | 46.8 µM (inactive) | 3.33 µM (inactive) | > 100 µM (inactive) | > 100 µM (inactive) |
| COc1ccc2c(c1)C1=NCCN(CCN(C)C)c3ccc([N+](=O)[O-])c(c31)N2 | 1.59 µM (inactive) | 0.56 µM (active) | 0.116 µM (active) | 0.395 | 1.21 µM (inactive) | 0.603 µM (active) | 0.351 µM (active) | 0.365 µM (active) | 0.627 µM (active) | 0.355 µM (active) | 2.17 µM (inactive) | 0.701 µM (active) | 0.354 µM (active) | 0.957 µM (active) | 0.442 µM (active) | 0.432 µM (active) | 0.492 µM (active) | 0.173 µM (active) | 0.252 µM (active) | 1.1 µM (active) |
| Cc1cc2c(cc1C)OC(=O)CC2 | > 100 µM (inactive) | > 100 µM (inactive) | > 100 µM (inactive) | – | > 100 µM (inactive) | > 100 µM (inactive) | > 100 µM (inactive) | > 100 µM (inactive) | > 100 µM (inactive) | > 100 µM (inactive) | > 100 µM (inactive) | > 100 µM (inactive) | > 100 µM (inactive) | > 100 µM (inactive) | > 100 µM (inactive) | > 100 µM (inactive) | – | > 100 µM (inactive) | > 100 µM (inactive) | > 100 µM (inactive) |
| CC(C)(C)c1cc(C(=O)/C=C/c2ccc3c(c2)CCO3)cc(C(C)(C)C)c1O | 1.12 µM (active) | 0.724 µM (active) | 1.2 µM (inactive) | 1.04 | 4.15 µM (inactive) | 16.2 µM (inactive) | 1.57 µM (inactive) | 1.23 µM (inactive) | 0.327 µM (active) | 2.42 µM (inactive) | 2.24 µM (inactive) | 1.14 µM (inactive) | 0.76 µM (active) | 0.614 µM (active) | 0.984 µM (active) | 0.619 µM (active) | 2.94 µM (inactive) | 0.733 µM (active) | 1.13 µM (inactive) | 1.31 µM (inactive) |
| COc1ccc2ccc3oc(=O)c(C)cc3c2c1 | > 100 µM (inactive) | > 100 µM (inactive) | > 100 µM (inactive) | – | > 100 µM (inactive) | > 10 µM (inactive) | > 100 µM (inactive) | > 100 µM (inactive) | > 100 µM (inactive) | > 100 µM (inactive) | > 100 µM (inactive) | > 100 µM (inactive) | > 100 µM (inactive) | > 100 µM (inactive) | > 100 µM (inactive) | > 100 µM (inactive) | > 100 µM (inactive) | 28.8 µM (inactive) | > 100 µM (inactive) | > 100 µM (inactive) |
| O=C(O)c1cccc(F)c1C(=O)c1ccc2ccccc2c1 | > 100 µM (inactive) | > 100 µM (inactive) | > 100 µM (inactive) | > 100 | > 100 µM (inactive) | > 100 µM (inactive) | > 100 µM (inactive) | > 100 µM (inactive) | > 100 µM (inactive) | – | > 100 µM (inactive) | – | > 100 µM (inactive) | > 100 µM (inactive) | > 100 µM (inactive) | > 100 µM (inactive) | > 100 µM (inactive) | 73.1 µM (inactive) | > 100 µM (inactive) | > 100 µM (inactive) |
| CC(C)C(C/C=C1/CC(CO)(COC(=O)C2CCCCC2)OC1=O)C(C)C (stereo unspecified) | 20.4 µM (inactive) | 15.2 µM (inactive) | 17.5 µM (inactive) | 21.6 | 11.7 µM (inactive) | 13.6 µM (inactive) | 14.2 µM (inactive) | 18.7 µM (inactive) | 34.7 µM (inactive) | 17.8 µM (inactive) | 21.4 µM (inactive) | 16.6 µM (inactive) | 20.2 µM (inactive) | 21.3 µM (inactive) | – | 14.2 µM (inactive) | 15 µM (inactive) | 13.8 µM (inactive) | 22.3 µM (inactive) | 16.8 µM (inactive) |

From ChEMBL document CHEMBL1201862, “PubChem BioAssay data set” (2004)
